Test results as given in EP4603105A1, “PHARMACEUTICAL COMPOSITION CONTAINING CYCLIC COMPOUND HAVING SELECTIVE KRAS INHIBITORY EFFECT AGAINST HRAS AND NRAS” (CHUGAI SEIYAKU KABUSHIKI KAISHA, priority 2022, dated 2024).
Where a SMILES comes first, the peptide text is derived from it. Bridges are numbered along the chain shown (N, C = ends). [ ]: non-standard residue; d: D form. The star is where a group is joined. hPhe(3-Cl-4-CF3) = N[C@@H](CCc1ccc(C(F)(F)F)c(Cl)c1)C(=O)O; NPrPhe(4-CF3) = CCCN[C@@H](Cc1ccc(C(F)(F)F)cc1)C(=O)O; NMeGly(cPent) = CN[C@H](C(=O)O)C1CCCC1; Hyp = O=C(O)[C@@H]1C[C@@H](O)CN1; NMeD = CN[C@@H](CC(=O)O)C(=O)O; NMeL = CN[C@@H](CC(C)C)C(=O)O; Morpholide = C1CN(*)CCO1; NMeA = CN[C@@H](C)C(=O)O; Ac5c = NC1(C(=O)O)CCCC1; Aze = O=C(O)[C@@H]1CCN1; Ethyl(2,2-F2) = FC(F)C*; Sar = CNCC(=O)O

Columns and labels:
[1] = target: GDP-bound NRAS wild-type protein (Homo sapiens, UniProt P01111); test: Binding to NRAS by surface plasmon resonance (SPR), KD and KD ratio to KRAS
In short: (§1)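 Affinity is measured by surface plasmon resonance at 30°C against captured, GDP-loaded RAS carrying a biotinylated Avi tag. Compounds are titrated by single-cycle kinetics, and KD comes from a 1:1 fit.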

[2] = test system: human lung cancer strain NCI-H441; assay type: cell-based
In short: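 Readout: […] after the ATP-based reagent. Compound: serial dilutions in dimethyl sulfoxide.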

HRAS wild-type protein = HRAS wild-type protein (Homo sapiens, UniProt P01112); test: Binding to HRAS by surface plasmon resonance (SPR), KD and KD ratio to KRAS
In short: as §1

[3] = ratio of KD for GDP-bound NRAS wild-type protein to KD for KRAS
[4] = ratio of KD for HRAS wild-type protein to KD for KRAS
[5] = ratio of the KD value with respect to GDP-bound NRAS wild-type protein to the KD value with respect to KRAS
[6] = ratio of the KD value with respect to HRAS wild-type protein to the KD value with respect to KRAS
[7] = ratio of KD value for GDP-bound NRAS wild-type protein to KD value for KRAS (SPR)
[8] = ratio of KD value for HRAS wild-type protein to KD value for KRAS (SPR)

Chain of GDP-bound NRAS wild-type protein (P01111 whole entry): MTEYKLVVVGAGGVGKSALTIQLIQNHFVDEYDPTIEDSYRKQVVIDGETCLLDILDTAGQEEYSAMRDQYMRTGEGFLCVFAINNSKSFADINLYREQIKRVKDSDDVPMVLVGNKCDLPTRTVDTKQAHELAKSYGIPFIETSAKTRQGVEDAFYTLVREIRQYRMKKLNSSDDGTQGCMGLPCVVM
Chain of HRAS wild-type protein (P01112 whole entry): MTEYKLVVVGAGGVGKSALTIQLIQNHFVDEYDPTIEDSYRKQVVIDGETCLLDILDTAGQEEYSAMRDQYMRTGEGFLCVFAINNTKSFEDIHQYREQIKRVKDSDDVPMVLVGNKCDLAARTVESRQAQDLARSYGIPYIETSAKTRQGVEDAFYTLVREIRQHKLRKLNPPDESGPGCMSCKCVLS

IC50 [2] [nM] | Compound | NRAS /KRAS [1, 3] | HRAS /KRAS (HRAS wild-type protein; [4]) | NRAS /KRAS [1, 7] | HRAS /KRAS (HRAS wild-type protein; [8]) | also measured
27.1 | CCC(CC)[C@H]1C(=O)N(C)[C@H](C(=O)N(C)C)CC(=O)N(C)[C@@H](COC)C(=O)N[C@@H]([C@@H](C)CC)C(=O)N(C)CC(=O)N(C)[C@H]2C/C=C\CCN(C2=O)[C@@H](Cc2ccc(C(F)(F)F)cc2)C(=O)N(C)CC(=O)N[C@@H](CCc2ccc(C(F)(F)F)c(Cl)c2)C(=O)N2CC3(CC3)C[C@H]2C(=O)NC2(CC(C)(C)C2)C(=O)N1C [PP2965] | AA (a compound having 20 or more is denoted as AA) | A (a compound having 10 or more and less than 20 is denoted as A) | – | – | –
64 | CCCN1C(=O)CN(C)C(=O)CN(C)C(=O)[C@H]([C@@H](C)CC)NC(=O)[C@H](CC(C)C)N(C)C(=O)C[C@@H](C(=O)N2CCOCC2)NC(=O)[C@H](C2CCCC2)N(C)C(=O)C2(CCCC2)NC(=O)[C@@H]2C[C@@H](OCC)CN2C(=O)[C@H](CCc2ccc(C(F)(F)F)c(Cl)c2)NC(=O)CN(C)C(=O)[C@@H]1Cc1ccc(C(F)(F)F)cc1 [PP0323] ([NMeL]I[Sar][Sar][NPrPhe(4-CF3)][Sar][hPhe(3-Cl-4-CF3)][Hyp](Et)[Ac5c][NMeGly(cPent)]D-Morpholide; lactam N-11) | B (a compound having 3 or more and less than 10 is denoted as B) | B (a compound having 3 or more and less than 10 is denoted as B) | – | – | –
2.9 | CCO[C@@H]1C[C@H]2C(=O)NC3(CCC3)C(=O)N(C)[C@@H](C3CCCC3)C(=O)N(C)[C@H](C(=O)N(C)C)CC(=O)N(C)[C@@H](CC(C)(C)C)C(=O)N[C@@H]([C@@H](C)CC)C(=O)N(C)CC(=O)N(C)[C@H]3CCCCN(C3=O)[C@@H](Cc3ccc(C(F)(F)F)cc3)C(=O)N(C)CC(=O)N[C@@H](CCc3cc(F)c(C(F)(F)F)c(F)c3)C(=O)N2C1 [PP0699] | – | – | – | – | NRAS /KRAS [1, 5]: C (A compound having a KD ratio of 0.1 or more and less than 3 is denoted as C); HRAS /KRAS (HRAS wild-type protein; [6]): C (A compound having a KD ratio of 0.1 or more and less than 3 is denoted as C)
77.7 | CC[C@H](C)[C@@H]1NC(=O)[C@H](CC(C)C)N(C)C(=O)C[C@@H](C(=O)N2CCOCC2)N(C)C(=O)[C@H](C2CCCC2)N(C)C(=O)C2(CCC2)NC(=O)[C@@H]2CCCN2C(=O)[C@H](CCc2ccc(C(F)(F)F)c(Cl)c2)NC(=O)CN(C)C(=O)[C@H](Cc2ccc(F)cc2)N2CCCCC[C@@H](C2=O)N(C)C(=O)CN(C)C1=O [PP0967] | B (a compound having 3 or more and less than 10 is denoted as B) | B (a compound having 3 or more and less than 10 is denoted as B) | – | – | –
2.1 | CCO[C@@H]1C[C@H]2C(=O)NC3(CCC3)C(=O)N(C)[C@@H](C3CCCC3)C(=O)N(C)[C@H](C(=O)N(C)CC)CC(=O)N(C)[C@H]3CCC/C=C/c4ccc(cc4)C[C@@H](C(=O)N(C)CC(=O)N[C@@H](CCc4ccc(C(F)(F)F)c(OC)c4)C(=O)N2C1)N1CC/C=C\C[C@@H](C1=O)N(C)C(=O)CN(C)C(=O)[C@H]([C@@H](C)CC)NC3=O [PP1834] | – | – | A (a compound having 10 or more and less than 20 is denoted as A) | B (a compound having 3 or more and less than 10 is denoted as B) | –
1.4 | CCC[C@H]1C(=O)N[C@@H]([C@@H](C)CC)C(=O)N(C)CC(=O)N(C)[C@H]2C/C=C\CCN(C2=O)[C@@H](Cc2ccc(C(F)(F)F)cc2)C(=O)N(C)CC(=O)N[C@@H](CCc2cc(F)c(C(F)(F)F)c(F)c2)C(=O)N2C[C@H](F)C[C@H]2C(=O)NC2(CC(C)(C)C2)C(=O)N(C)[C@@H](C2CCCC2)C(=O)N(C)[C@H](C(=O)N(C)C)CC(=O)N1C [PP1689] | – | – | A (a compound having 10 or more and less than 20 is denoted as A) | B (a compound having 3 or more and less than 10 is denoted as B) | –
1.8 | CCCN1C(=O)CN(C)C(=O)CN(C)C(=O)[C@H]([C@@H](C)CC)NC(=O)[C@H](CC(C)C)N(C)C(=O)C[C@@H](C(=O)N2CCOCC2)N(C)C(=O)[C@H](C2CCCC2)N(C)C(=O)C2(CCCC2)NC(=O)[C@@H]2C[C@@H](OCC(F)F)CN2C(=O)[C@H](CCc2ccc(C(F)(F)F)c(Cl)c2)NC(=O)CN(C)C(=O)[C@@H]1Cc1ccc(C(F)(F)F)cc1 [PP0246] ([NMeL]I[Sar][Sar][NPrPhe(4-CF3)][Sar][hPhe(3-Cl-4-CF3)][Hyp](Ethyl(2,2-F2))[Ac5c][NMeGly(cPent)][NMeD]-Morpholide; lactam N-11) | B (a compound having 3 or more and less than 10 is denoted as B) | C (A compound having a KD ratio of 0.1 or more and less than 3 is denoted as C) | – | – | –
25.7 | CCO[C@@H]1C[C@H]2C(=O)NC3(CC(C)(C)C3)C(=O)N(C)[C@@H](C3CCCCC3)C(=O)N(C)[C@H](C(=O)N(C)C)CC(=O)N(C)[C@@H](CC)C(=O)N[C@@H]([C@@H](C)CC)C(=O)N(C)CC(=O)N(C)[C@H]3C/C=C\CCN(C3=O)[C@@H](Cc3ccc(C(F)(F)F)cc3)C(=O)N(C)CC(=O)N[C@@H](CCc3cc(F)c(C(F)(F)F)c(F)c3)C(=O)N2C1 [PP1942] | – | – | – | – | NRAS /KRAS [1, 5]: AA (a compound having 20 or more is denoted as AA); HRAS /KRAS (HRAS wild-type protein; [6]): A (a compound having 10 or more and less than 20 is denoted as A)
8.8 | CCCN(C)C(=O)[C@@H]1CC(=O)N(C)[C@@H](CC2CC2)C(=O)N[C@@H]([C@@H](C)CC)C(=O)N(C)CC(=O)N(C)[C@H]2C/C=C\CCN(C2=O)[C@@H](Cc2ccc(C(F)(F)F)cc2)C(=O)N(C)CC(=O)N[C@@H](CCc2cc(F)c(C(F)(F)F)c(F)c2)C(=O)N2C[C@H](OCC)C[C@H]2C(=O)NC2(CCC2)C(=O)N(C)[C@@H](C2CCCC2)C(=O)N1C [PP1388] | – | – | – | – | NRAS /KRAS ([1]; ratio of KD with respect to GDP-bound NRAS wild-type protein to KD with respect to KRAS): A (a compound having 10 or more and less than 20 is denoted as A); HRAS /KRAS (HRAS wild-type protein; ratio of KD with respect to HRAS wild-type protein to KD with respect to KRAS): B (a compound having 3 or more and less than 10 is denoted as B)
19.3 | CCO[C@@H]1C[C@H]2C(=O)NC3(CC(C)(C)C3)C(=O)N(C)[C@@H](C(CC)CC)C(=O)N(C)[C@H](C(=O)N(C)C)CC(=O)N(C)[C@H]3CCCCC/C=C/c4ccc(cc4)C[C@@H](C(=O)N(C)CC(=O)N[C@@H](CCc4ccc(Cl)c(Cl)c4)C(=O)N2C1)N1CC/C=C\C[C@@H](C1=O)N(C)C(=O)CN(C)C(=O)[C@H]([C@@H](C)CC)NC3=O [PP3050] | AA (a compound having 20 or more is denoted as AA) | A (a compound having 10 or more and less than 20 is denoted as A) | – | – | –
6 | CCCOC[C@H]1C(=O)N[C@@H]([C@@H](C)CC)C(=O)N(C)CC(=O)N(C)[C@H]2C/C=C\CCN(C2=O)[C@@H](Cc2ccc(C(F)(F)F)cc2)C(=O)N(C)CC(=O)N[C@@H](CCc2cc(F)c(C(F)(F)F)c(F)c2)C(=O)N2C[C@H](OCC)C[C@H]2C(=O)NC2(CC(C)(C)C2)C(=O)N(C)[C@@H](C2CCCC2)C(=O)N(C)[C@H](C(=O)N(C)CCC)CC(=O)N1C [PP1673] | – | – | A (a compound having 10 or more and less than 20 is denoted as A) | A (a compound having 10 or more and less than 20 is denoted as A) | –
1.8 | CCO[C@@H]1C[C@H]2C(=O)NC3(CCC3)C(=O)N(C)[C@@H](C3CCCC3)C(=O)N(C)[C@H](C(=O)N(C)C)CC(=O)N(C)[C@@H](CC(C)C)C(=O)N[C@@H]([C@@H](C)CC)C(=O)N(C)CC(=O)N(C)[C@H]3CCCCN(C3=O)[C@@H](Cc3ccc(C(F)(F)F)cc3)C(=O)N(C)CC(=O)N[C@@H](CCc3cc(F)c(C(F)(F)F)c(F)c3)C(=O)N2C1 [PP0580] | – | – | – | – | NRAS /KRAS [1, 5]: C (A compound having a KD ratio of 0.1 or more and less than 3 is denoted as C); HRAS /KRAS (HRAS wild-type protein; [6]): C (A compound having a KD ratio of 0.1 or more and less than 3 is denoted as C)
170 | CCO[C@@H]1C[C@H]2C(=O)NC3(CC(C)(C)C3)C(=O)N(C)[C@@H](C3CCCC3)C(=O)N3CCC[C@@H]3CC(=O)N(C)[C@@H](CC)C(=O)N[C@@H]([C@@H](C)CC)C(=O)N(C)CC(=O)N(C)[C@H]3C/C=C\CCN(C3=O)[C@@H](CC3CCCCC3)C(=O)N(C)CC(=O)N[C@@H](CCc3cc(F)c(C(F)(F)F)c(F)c3)C(=O)N2C1 [PP1620] | – | – | B (a compound having 3 or more and less than 10 is denoted as B) | B (a compound having 3 or more and less than 10 is denoted as B) | –
1 | CCCN1C(=O)[C@@H]2CCN2C(=O)[C@H](C)N(C)C(=O)[C@H]([C@@H](C)CC)NC(=O)[C@H](CC(C)C)N(C)C(=O)C[C@@H](C(=O)N(C)C)N(C)C(=O)[C@H](C2CCCC2)N(C)C(=O)C2(CCCC2)NC(=O)[C@@H]2C[C@@H](OCC)CN2C(=O)[C@H](CCc2ccc(C(F)(F)F)c(Cl)c2)NC(=O)CN(C)C(=O)[C@@H]1Cc1ccc(C(F)(F)F)cc1 [PP0438] ([NMeL]I[NMeA][Aze][NPrPhe(4-CF3)][Sar][hPhe(3-Cl-4-CF3)][Hyp](Et)[Ac5c][NMeGly(cPent)][NMeD]-NMe2; lactam N-11) | – | – | – | – | NRAS /KRAS [1, 5]: C (A compound having a KD ratio of 0.1 or more and less than 3 is denoted as C); HRAS /KRAS (HRAS wild-type protein; [6]): C (A compound having a KD ratio of 0.1 or more and less than 3 is denoted as C)
3.6 | CCCOC[C@H]1C(=O)N[C@@H]([C@@H](C)CC)C(=O)N(C)CC(=O)N(C)[C@H]2C/C=C\CCN(C2=O)[C@@H](Cc2ccc(C(F)(F)F)cc2)C(=O)N(C)CC(=O)N[C@@H](CCc2cc(F)c(C(F)(F)F)c(F)c2)C(=O)N2C[C@H](F)C[C@H]2C(=O)NC2(CC(C)(C)C2)C(=O)N(C)[C@@H](C2CCCC2)C(=O)N(C)[C@H](C(=O)N(C)CC)CC(=O)N1C [PP1697] | – | – | A (a compound having 10 or more and less than 20 is denoted as A) | A (a compound having 10 or more and less than 20 is denoted as A) | –
